Tests used:
[1] = test system: patients with schizophrenia; assay: CATIE trial drug response (>20% decrease in PANSS Total Score) by HPCAL1/SV2C genotype; type: in vivo, human; conditions: for Response frequency: CATIE Phase 1; for OR vs. Low / OR vs. baseline: response; for OR vs. Low: vs low scoring genotype(s); for OR vs. baseline: vs sample not segmented by genotype
Protocol: (§1) The Clinical Antipsychotic Trials of Intervention Effectiveness (CATIE), a large federally funded clinical trial designed to assess the efficacy of antipsychotics in a real world setting, is a valuable resource for determining the role of genes in drug response (Stroup et al., Schizophr. Bull. 29:15-31 (2003); Lieberman et al., N. Engl. J. […] As part of the CATIE trial SNP genotyping was performed for roughly half of the trial participants (Sullivan et al., Mol. Psychiatry 13:570-584 (2008)). […] The design of the CATIE study has been described in detail by others (Stroup et al., Schizophr. Bull. 29:15-31 (2003); Lieberman et al., N. Engl. J. […] A total of 738 subjects consented to provide DNA for genetic study. […] Genotype and phenotype data for the CATIE trial were made available to qualified researchers through The NIMH Center for Collaborative Genetic Studies on Mental Disorders. For reduction to practice, we evaluated data for 417 patients with schizophrenia self reported as having exclusively European ancestry. […] Golden Helix, Bozeman, Mont.). To generate a P value, HelixTree calculates analysis of deviance (a likelihood ratio statistic) that compares the observed contingency table vs. an expected contingency table created with all the possible variations of the genetic model. […] The standard FDA registration trial definition of response of >20% decrease in Positive and Negative Syndrome Scale (PANSS Total Score) was used to assign subjects to a response category. […] Bull. 29:73-80 (2003)). […] The tables report odds ratios relative to the baseline values (sample not segmented by genotype) and relative to values for the low scoring, mutually exclusive genotype(s).

[2] = test system: patients with schizophrenia; assay: CATIE trial side effects (discontinued for safety concerns, COMPEFF score 5) by HPCAL1/SV2C genotype; type: in vivo, human; conditions: for OR vs. Low / OR vs. baseline: side effects; for OR vs. Low: vs low scoring genotype(s); for OR vs. baseline: vs sample not segmented by genotype
Protocol: as §1

[3] = SV2C rs6453205 genotype C/C (C)
[4] = HPCAL1 rs11679891 genotype A/C, C/C (C)
[5] = HPCAL1 rs13033617 genotype C/C (C)
[6] = HPCAL1 rs11679891 genotype C/C (C)
[7] = SV2C rs4610441 genotype C/C (C)
[8] = SV2C rs10064352 genotype T/T (T)
[9] = SV2C rs10474464 genotype C/C (C)
[10] = SV2C rs12152728 genotype C/C (C)
[11] = SV2C rs12522597 genotype G/G, A/G (G)
[12] = HPCAL1 rs7571627 genotype T/T (T)

## OCCN1CCN(CCCN2c3ccccc3Sc3ccc(Cl)cc32)CC1 [perphenazine]
[1]; [3]
  Response frequency: 0.7
  OR vs. Low: 3.36
  OR vs. baseline: 2.43
[2]; [4]
  Frequency Study ending side effects: 0.19
  OR vs. Low: >10
  OR vs. baseline: 1.44
[2]; [5]
  Frequency Study ending side effects: 0.27
  OR vs. Low: 3.74
  OR vs. baseline: 2.27

## OCCOCCN1CCN(C2=Nc3ccccc3Sc3ccccc32)CC1 [quetiapine]
[1]; [6]
  Response frequency: 0.6
  OR vs. baseline: 3.05
[1]; [7]
  Response frequency: 0.6
  OR vs. baseline: 3.05
[1]; [8]
  Response frequency: 0.6
  OR vs. Low: 3.67
  OR vs. baseline: 3.05
[1]; [9]
  Response frequency: 0.6
  OR vs. baseline: 3.05
[1]; [10]
  Response frequency: 0.5
  OR vs. Low: 2.70
  OR vs. baseline: 2.03

## Cc1nc2n(c(=O)c1CCN1CCC(c3noc4cc(F)ccc34)CC1)CCCC2 [risperidone]
[1]; SV2C rs4704297 genotype C/C, C/G (C)
  Response frequency: 0.45

## O=C1Cc2cc(CCN3CCN(c4nsc5ccccc45)CC3)c(Cl)cc2N1 [ziprasidone]
[1]; [11]
  Response frequency: 0.55
  OR vs. Low: 9.89
  OR vs. baseline: 1.49
[2]; [12]
  Frequency Study ending side effects: 0.33
  OR vs. Low: 4.98
  OR vs. baseline: 1.56
[2]; SV2C rs246812 genotype A/A (A)
  Frequency Study ending side effects: 0.5
  OR vs. Low: 6.14
  OR vs. baseline: 3.17

Source: US8460868B2, “Genetic markers for schizophrenia and bipolar disorder” (priority 2007, dated 2013)
